Measured values: US8802673B2, “Heterocyclic amine derivatives” (Hoffmann-La Roche Inc, priority 2011, dated 2014)
pKd: −log10 of the molar value.

Columns and labels:
mouse TAAR1 = mouse TAAR1 (Mus musculus (Mouse), UniProt Q923Y8); experiment: Radioligand binding assay on mouse TAAR1; settings: for Ki: mouse TAAR1 (first value of the cell), HEK-293 membranes, read-out: Ki (μM) mouse/rat
In short: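 Membranes from HEK293 cells stably expressing mouse TAAR1, Kd of radioligand determined per batch by saturation. Compounds tested 10 pM to 10 μM in duplicate, incubated 1 h at 4 °C, then filtration over PEI-soaked GF/C filters and scintillation counting.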

rat TAAR1 = rat TAAR1 (Rattus norvegicus (Rat), UniProt Q923Y9); experiment: Radioligand binding assay on rat TAAR1; settings: for Ki: rat TAAR1 (second value of the cell), HEK-293 membranes, read-out: Ki (μM) mouse/rat
Chain of rat TAAR1 (Q923Y9 whole entry): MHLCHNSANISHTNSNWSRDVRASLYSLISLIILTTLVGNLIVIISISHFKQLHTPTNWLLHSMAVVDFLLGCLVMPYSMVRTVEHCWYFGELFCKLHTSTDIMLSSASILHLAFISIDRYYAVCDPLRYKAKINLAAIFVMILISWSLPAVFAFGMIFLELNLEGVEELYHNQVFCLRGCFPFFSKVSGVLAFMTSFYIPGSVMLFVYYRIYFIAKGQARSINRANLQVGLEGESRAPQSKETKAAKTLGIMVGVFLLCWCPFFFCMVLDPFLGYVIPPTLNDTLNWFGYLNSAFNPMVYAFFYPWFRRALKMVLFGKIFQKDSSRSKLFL
In short: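 Membranes from HEK293 cells stably expressing rat TAAR1 were used, with radioligand Kd determined by saturation for each batch. Compounds (10 pM to 10 μM, in duplicate) were incubated for 1 h at 4 °C. Bound radioactivity was collected by filtration onto PEI-soaked GF/C filters and counted by scintillation.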

Chain of mouse TAAR1 (Q923Y8 whole entry): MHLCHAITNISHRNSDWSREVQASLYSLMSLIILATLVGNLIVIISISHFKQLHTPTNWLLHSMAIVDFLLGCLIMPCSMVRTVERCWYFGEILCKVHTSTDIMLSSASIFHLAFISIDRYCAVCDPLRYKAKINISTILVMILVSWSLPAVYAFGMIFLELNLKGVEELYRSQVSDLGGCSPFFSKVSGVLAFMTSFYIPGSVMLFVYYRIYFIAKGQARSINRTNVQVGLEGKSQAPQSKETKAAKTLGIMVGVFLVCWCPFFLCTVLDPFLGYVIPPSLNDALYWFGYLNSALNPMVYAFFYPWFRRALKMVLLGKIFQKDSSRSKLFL

Row | SMILES | Ki (mouse TAAR1) [µM] | Ki (rat TAAR1) [µM] | pKd (mouse TAAR1; mouse TAAR1 membranes, saturation curve, usual value, read-out: dissociation constant (Kd) of the radioligand) | pKd (rat TAAR1; rat TAAR1 membranes, saturation curve, usual value, read-out: dissociation constant (Kd) of the radioligand)
1 | Clc1ncc(Cl)c(Nc2ccc([C@H]3CNCCO3)cc2)n1 [Example 186, (S)-2,5-Dichloro-N-(4-(morpholin-2-yl)phenyl)pyrimidin-4-amine] | 0.138 | 1.1 |  | 
2 | FC(F)(F)COc1ccnc(Nc2ccc([C@H]3CNCCO3)cc2)n1 [Example 187, ((S)-4-Morpholin-2-yl-phenyl)-[4-(2,2,2-trifluoro-ethoxy)-pyrimidin-2-yl]-amine] | 0.0021 | 0.01 |  | 
3 | c1cc(C2CC2)nc(Nc2ccc([C@@H]3CNCCO3)cc2)n1 [Example 189, (4-Cyclopropyl-pyrimidin-2-yl)-((R)-4-morpholin-2-yl-phenyl)-amine] | 0.109 | 0.0605 |  | 
4 | Fc1cnc(Nc2ccc([C@@H]3CNCCO3)cc2)nc1C1CC1 [Example 190, (4-Cyclopropyl-5-fluoro-pyrimidin-2-yl)-((R)-4-morpholin-2-yl-phenyl)-amine] | 0.0031 | 0.0422 |  | 
5 | FS(F)(F)(F)(F)c1ccc(Nc2ccc([C@@H]3CNCCO3)cc2)cc1 [Example 191, (4-Pentalluorosulfanyl-phenyl)-((R)-4-morpholin-2-yl-phenyl)-amine] | 0.001 | 0.0032 |  | 
6 | Fc1cc(Nc2ncc(C3CC3)cn2)ccc1[C@@H]1CNCCO1 [Example 192, (R)-5-Cyclopropyl-N-(3-fluoro-4-(morpholin-2-yl)phenyl)pyrimidin-2-amine] | 0.0025 | 0.0026 |  | 
7 | Clc1cc(Nc2ncc(C3CC3)cn2)ccc1[C@H]1CNCCO1 [Example 193, ((S)-3-Chloro-4-morpholin-2-yl-phenyl)-(5-cyclopropyl-pyrimidin-2-yl)-amine] | 0.0038 | 0.0196 |  | 
8 | Clc1cc(Nc2ncc(C3CC3)cn2)ccc1[C@@H]1CNCCO1 [Example 194, ((R)-3-Chloro-4-morpholin-2-yl-phenyl)-(5-cyclopropyl-pyrimidin-2-yl)-amine] | 0.0021 | 0.0011 |  | 
9 | Fc1cc(Nc2ncc(C3CC3)cn2)ccc1[C@H]1CNCCO1 [Example 195, (S)-5-Cyclopropyl-N-(3-fluoro-4-(morpholin-2-yl)phenyl)pyrimidin-2-amine] | 0.0017 | 0.0252 |  | 
10 | Fc1cc(Nc2ncc(C(F)(F)F)cn2)ccc1[C@@H]1CNCCO1 [Example 196, (R)—N-(3-Fluoro-4-(morpholin-2-yl)phenyl)-5-(trifluoromethyl)pyrimidin-2-amine] | 0.0049 | 0.004 |  | 
11 | Fc1cc(Nc2ncc(C(F)(F)F)cn2)ccc1[C@H]1CNCCO1 [Example 197, (S)—N-(3-Fluoro-4-(morpholin-2-yl)phenyl)-5-(trifluoromethyl)pyrimidin-2-amine] | 0.0031 | 0.0315 |  | 
12 | FC(F)(F)c1cc(Nc2ccc([C@@H]3CNCCO3)cc2)ncn1 [Example 198, (R)—N-(4-(Morpholin-2-yl)phenyl)-6-(trifluoromethyl)pyrimidin-4-amine] | 0.0419 | 0.163 |  | 
13 | Clc1cc(Nc2ccc([C@@H]3CNCCO3)cc2)ncn1 [Example 199, (R)-6-Chloro-N-(4-(morpholin-2-yl)phenyl)pyrimidin-4-amine] | 0.0231 | 0.056 |  | 
14 | FC(F)(F)c1nccc(Nc2ccc([C@@H]3CNCCO3)cc2)n1 [Example 200, (R)—N-(4-(morpholin-2-yl)phenyl)-2-(trifluoromethyl)pyrimidin-4-amine] | 0.0089 | 0.0588 |  | 
15 | FC(F)(F)c1cnc(Nc2ccc([C@@H]3CNCCO3)cc2)cn1 [Example 201, (R)—N-(4-(Morpholin-2-yl)phenyl)-5-(trffluoromethyl)pyrazin-2-amine] | 0.008 | 0.0626 |  | 
16 | Clc1cnc(Nc2ccc([C@@H]3CNCCO3)c(Cl)c2)nc1 [Example 202, ((R)-3-Chloro-4-morpholin-2-yl-phenyl)-(5-chloro-pyrimidin-2-yl)-amine] | 0.0032 | 0.0065 |  | 
17 | FC(F)(F)COc1cnc(Nc2ccc([C@@H]3CNCCO3)c(Cl)c2)nc1 [Example 203, ((R)-3-Chloro-4-morpholin-2-yl-phenyl)-[5-(2,2,2-trifluoro-ethoxy)-pyrimidin-2-yl]-amine] | 0.0022 | 0.0017 |  | 
18 | FC(F)(F)c1cnc(Nc2ccc([C@@H]3CNCCO3)c(Cl)c2)nc1 [Example 204, ((R)-3-Chloro-4-morpholin-2-yl-phenyl)-(5-trifluoromethyl-pyrimidin-2-yl)-amine] | 0.0038 | 0.0021 |  | 
19 | Clc1cnc(Nc2ccc([C@@H]3CNCCO3)cc2)cn1 [Example 205, (R)-5-Chloro-N-(4-(morpholin-2-yl)phenyl)pyrazin-2-amine] | 0.0026 | 0.162 |  | 
20 | Clc1cncc(Nc2ccc([C@@H]3CNCCO3)cc2)n1 [Example 206, (R)-6-Chloro-N-(4-(morpholin-2-yl)phenyl)pyrazin-2-amine] | 0.005 | 0.0963 |  | 
21 | Fc1cc(Nc2ncc(OCC(F)(F)F)cn2)ccc1[C@@H]1CNCCO1 [Example 207, (R)—N-(3-Fluoro-4-(morpholin-2-yl)phenyl)-5-(2,2,2-trifluoroethoxy)pyrimidin-2-amine] | 0.0043 | 0.0102 |  | 
22 | Fc1cc(Nc2nccc(OCC(F)(F)F)n2)ccc1[C@@H]1CNCCO1 [Example 208, (R)—N-(3-Fluoro-4-(morpholin-2-yl)phenyl)-4-(2,2,2-trifluoroethoxy)pyrimidin-2-amine] | 0.003 | 0.0035 |  | 
23 | Fc1cc(Nc2ncc(F)c(OCC(F)(F)F)n2)ccc1[C@@H]1CNCCO1 [Example 209, (R)-5-Fluoro-N-(3-fluoro-4-(morpholin-2-yl)phenyl)-4-(2,2,2-trifluoroethoxy)pyrimidin-2-amine] | 0.0032 | 0.0025 |  | 
24 | Fc1cc(Nc2ncc(Cl)cn2)ccc1[C@@H]1CNCCO1 [Example 210, (R)-5-Chloro-N-(3-fluoro-4-(morpholin-2-yl)phenyl)pyrimidin-2-amine] | 0.0047 | 0.0266 |  | 
25 | FC(F)(F)COc1ccnc(Nc2ccc([C@@H]3CNCCO3)c(Cl)c2)n1 [Example 211, ((R)-3-Chloro-4-morpholin-2-yl-phenyl)-[4-(2,2,2-trifluoro-ethoxy)-pyrimidin-2-yl]-amine] | 0.0042 | 0.0011 |  | 
26 | CCN(C[C@H]1COC(N)=N1)c1ccccc1 [^3[H]-(S)-4-[(ethyl-phenylamino)-methyl]-4,5-dihydro-oxazol-2-ylamine, reference compound] |  |  | ~9.15 | ~8.64
